One assay has as its system Rhizoctonia solani. The experiment in a line: Seed treatment bio-efficacy against Rhizoctonia solani in inoculated soybean seeds. The class given is in vivo. The note with it: % control of Rhizoctonia solani. The procedure:
This effectiveness of all treatments as measured by percent reduction in the target phytopathogen growth, was also evaluated according to Colby's equation as below. E=X+Y−XY/100 Colby's equation If the actual/observed anti-phytopathogenic efficacy of the ipconazole and thiabendazole combination against Rhizoctonia solani growth exceeds the calculated value, then the activity of the combination is super additive, i.e., a synergistic effect exists. In this case, the efficacy which was actually observed must be greater than the value for the expected efficacy (E) calculated from the abovementioned formula. Methodology: Experiments were carried out to evaluate the bio-efficacy of combinations according to the invention of the present disclosure consisting of ipconazole and thiabendazole against Rhizoctonia solani fungi in soybean seeds. The seeds were inoculated with Rhizoctonia solani. The fungicides were tank mixed and applied as seed treatment as described in table 4 below. Spraying volume was 5 ml/kg.

The subject of the next assay is S. sclerotiorum. Nature of the assay: Paper towel roll method, incidence of S. sclerotiorum in inoculated soybean seeds. The assay is classed as in vivo, Sclerotinia sclerotiorum. The note with it: % control of S. sclerotiorum, 14 days at 25° C. The procedure:
Colby Calculation: This effectiveness of all treatments as measured by percent reduction in the target phytopathogen growth, was also evaluated according to Colby's equation as below. E=X+Y−XY/100 Colby's equation If the actual/observed anti-phytopathogenic efficacy of the ipconazole and thiabendazole combination against S. sclerotiorum exceeds the calculated value, then the activity of the combination is super additive, i.e., a synergistic effect exists. In this case, the efficacy which was actually observed must be greater than the value for the expected efficacy (E) calculated from the abovementioned formula. Methodology: To evaluate the incidence of the pathogen S. sclerotiorum in soybean seeds, the laboratory paper towel roll method was used. A paper towel on a flat surface was placed and moistened with water until it was thoroughly damp. A sample size of a total of 100 soybean seeds in rows were placed on the towel. The seeds were inoculated with the fungal pathogen. The seeds were pre-treated as per the treatments mentioned in the Table 5. A second towel was moistened and placed onto the first paper towel, leaving the seeds sandwiched between the two towels. It was observed that air space in between the two towels was maintained, if not, excessive water should be removed. The two towels were rolled with the seeds in-between and place in a sealed container that retained the moisture. The paper rolls were placed upright and incubated for 14 days in an incubator at 25° C. and at a 12 h photoperiod in plastic bags, which is used to maintain humidity during the incubation. For each treatment, 400 seeds were analyzed, 8 repetitions with 50 seeds each repetition.

Two compounds from US20230189806A1, “FUNGICIDAL COMBINATIONS” (UPL Corporation Limited, priority 2021, published 2023) can be followed below.

As to `CC(C)C1CCC(Cc2ccc(Cl)cc2)C1(O)Cn1cncn1` (centres unmarked) [Ipconazole], the “Observed efficacy of demethylation inhibitor fungicide (%)” value came out at 49.05% with Rhizoctonia solani (ipconazole 2 g a.i./100 kg seed), 67.92% in the assay on Rhizoctonia solani (ipconazole 3 g a.i./100 kg seed), 21.3% with S. sclerotiorum (ipconazole 5.6 g a.i./100 kg seed) and 6.7% in the assay on S. sclerotiorum (ipconazole 7.78 g a.i./100 kg seed).

Consider `c1ccc2[nH]c(-c3cscn3)nc2c1` [Thiabendazole], for which the “Observed efficacy of β-tubulin assembly inhibitor fungicide (%)” value is 43.39% with Rhizoctonia solani (thiabendazole 12 g a.i./100 kg seeds), 56.60% in the assay with Rhizoctonia solani (thiabendazole 18 g a.i./100 kg seeds), 14.6% in the assay with S. sclerotiorum (thiabendazole 30.9 g a.i./100 kg seed) and 67.4% in the assay with S. sclerotiorum (thiabendazole 61.9 g a.i./100 kg seed).
